Test results from publication PMC8887546, “Design and Synthesis of Brain Penetrant Glycopeptide Analogues of PACAP With Neuroprotective Potential for Traumatic Brain Injury and Parkinsonism” (Frontiers in drug discovery, 2022).

Experiments:
human PAC1 receptor = molecular target: T1, human PAC1 receptor (Homo sapiens, UniProt P41586); assay: cAMP stimulation in CHO cells expressing PAC1; type: cell-based
T1 construct: expressed in transfected cells; host or cells: CHO cells (G418 selection)
T1 sequence (P41586 21-468): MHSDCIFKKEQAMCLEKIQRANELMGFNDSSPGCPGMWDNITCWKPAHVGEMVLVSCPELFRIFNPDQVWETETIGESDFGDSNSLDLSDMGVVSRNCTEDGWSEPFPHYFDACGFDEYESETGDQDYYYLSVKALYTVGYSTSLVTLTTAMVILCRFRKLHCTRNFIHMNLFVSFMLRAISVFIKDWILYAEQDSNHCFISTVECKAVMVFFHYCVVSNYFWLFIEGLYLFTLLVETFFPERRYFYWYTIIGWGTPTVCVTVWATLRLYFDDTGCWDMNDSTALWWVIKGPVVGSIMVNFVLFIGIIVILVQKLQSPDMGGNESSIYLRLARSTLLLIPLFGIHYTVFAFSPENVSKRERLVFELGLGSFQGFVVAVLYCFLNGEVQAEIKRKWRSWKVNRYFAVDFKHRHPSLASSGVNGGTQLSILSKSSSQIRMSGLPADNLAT
Outline: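 Serum-starved CHO cells expressing human receptors were pre-treated 20 min with 500 μM IBMX, then exposed to agonist concentration curves for 10 min in 500 μM IBMX. cAMP quantified by competition with bovine PKA and ^3H-cAMP (1 h, room temperature), scintillation read.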

[1] = test system: Sprague Dawley rats, 6-OHDA lesion; assay: Striatal TH expression, semi-quantitative western analysis (study 2); type: in vivo, rat; details: more severe (40%) lesion, vs vehicle
Protocol: Rats were treated with 2LS98Lac or saline (vehicle) as outlined in the Schemes in Figures 9A,B via intraperitoneal (i.p.) injection (15 mg/kg). All animals were made hemi-parkinsonian with unilateral, striatal 6-hydroxydopamine (Sigma Aldrich, St. Louis, MO) injections. After surgery, behavioral assessments were done at 2- and 4-weeks post-surgery. 24 h after the last test animals were either euthanized and whole brains were harvested for future biochemical analysis or perfused and brains collected for immunohistochemistry and stereological assessment of tyrosine hydroxylase-positive (TH+) cells remaining in the SNc. In study 1: n = 16 each group were included, and all underwent the behavioral analysis: n = 16, and for the stereology in the SNc, n = 8 each group was used. In study 2: n = 23 each group were included. […] In the 2LS98Lac group, one video at 4 weeks was lost, reducing n = 22 in this specific analysis, and for the stereology, 2 brains were damaged during processing and could not be included in the stereology of the SNc, therefore […]. For biochemical subanalyses, n = 8 each group. For the microglial morphology subanalysis n = 7 each group.
FIGURE 9 | Evaluation of neuroprotection of the PACAP glycopeptide 2LS98Lac in rat Parkinson’s disease models. (A) Scheme for study 1, using a mild PD lesion. (B) Scheme for study 2, using a moderate PD lesion. […]

## [2H]C([2H])([2H])C([2H])(C([2H])([2H])[2H])[C@]([2H])(NC(=O)[C@H](C)NC(=O)[C@H](C)NC(=O)[C@H](CC(C)C)NC(=O)[C@H](Cc1ccc(O)cc1)NC(=O)[C@H](CCCCN)NC(=O)[C@H](CCCCN)NC(=O)[C@@]([2H])(NC(=O)[C@H](C)NC(=O)[C@H](CC(C)C)NC(=O)[C@H](CCC(N)=O)NC(=O)[C@H](CCCCN)NC(=O)[C@H](CCCNC(=N)N)NC(=O)[C@H](Cc1ccc(O)cc1)NC(=O)[C@H](CCCNC(=N)N)NC(=O)[C@H](CO)NC(=O)[C@H](Cc1ccc(O)cc1)NC(=O)[C@H](CO)NC(=O)[C@H](CC(=O)O)NC(=O)[C@@H](NC(=O)[C@H](Cc1ccccc1)NC(=O)[C@@H](NC(=O)CNC(=O)[C@H](CC(=O)O)NC(=O)[C@H](CO)NC(=O)[C@@H](N)Cc1c[nH]cn1)[C@@H](C)CC)[C@@H](C)O)C([2H])(C([2H])([2H])[2H])C([2H])([2H])[2H])C(=O)N[C@@H](CC(C)C)C(=O)N[C@@H](CO[C@@H]1O[C@H](CO)[C@@H](O[C@@H]2O[C@H](CO)[C@H](O)[C@H](O)[C@H]2O)[C@H](O)[C@H]1O)C(N)=O [Compound 2LS98Lac]
Human PAC1 receptor
  EC50: 0.72 nM
Human PAC1 receptor; CHO
  Emax: 93%
[1]
  Striatal TH: no significant difference
